Assay results from PubChem BioAssay (NCI).
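Values below derive from 48-hour exposures of cells grown in 96-well plates, with endpoints linearly interpolated between the two concentrations bracketing the appropriate inhibition level. Here, GI50 denotes the concentration required for 50% inhibition of growth. TGI: concentration producing complete growth inhibition.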

How the values were obtained:
Test in all cases: DTP human tumour cell line panel, 48 h
[1] = system: NCI-H23 lung
[2] = system: NCI-H460 lung
[3] = system: NCI-H522 lung
[4] = system: NCI/ADR-RES ovarian
[5] = system: OVCAR-3 ovarian
[6] = system: OVCAR-4 ovarian
[7] = system: OVCAR-5 ovarian
[8] = system: OVCAR-8 ovarian
[9] = system: PC-3 prostate
[10] = system: RPMI-8226 leukemia
[11] = system: RXF 393 renal
[12] = system: SF-268 CNS
[13] = system: SF-295 CNS
[14] = system: SF-539 CNS
[15] = system: SK-MEL-2 melanoma
[16] = system: SK-MEL-28 melanoma
[17] = system: SK-MEL-5 melanoma
[18] = system: SK-OV-3 ovarian
[19] = system: SN12C renal
[20] = system: SNB-19 CNS
[21] = system: SNB-75 CNS
[22] = system: SR leukemia
[23] = system: SW-620 colon
[24] = system: T-47D breast
[25] = system: TK-10 renal
[26] = system: U251 CNS
[27] = system: UACC-257 melanoma
[28] = system: UACC-62 melanoma
[29] = system: UO-31 renal

Work on `O=C(Nc1cccc(-c2ccc(Cl)c(C(F)(F)F)c2)c1)C1CCN(Cc2cccc3cccnc23)CC1` yielded a TGI [1] of 3190 nM, a GI50 [2] of 1870 nM and a TGI [2] of 3550 nM. For the same compound, the GI50 [3] was 1730 nM, the TGI [3] was 3680 nM and the GI50 [4] was 1690 nM. It also gave a TGI [4] of 3310 nM, a GI50 [5] of 1720 nM and a TGI [5] of 3170 nM. The GI50 [6] was 1590 nM, the TGI [6] was 3080 nM and the GI50 [7] was 1570 nM. The TGI [7] was 2920 nM, the GI50 [8] was 1930 nM and the TGI [8] was 4190 nM. It also gave a GI50 [9] of 1410 nM, a TGI [9] of 2930 nM and a GI50 [10] of 2070 nM. The TGI [10] was 5400 nM, the GI50 [11] was 1270 nM and the TGI [11] was 2610 nM. For the same compound, the GI50 [12] was 1790 nM, the TGI [12] was 3550 nM and the GI50 [13] was 1730 nM. It also gave a TGI [13] of 3220 nM, a GI50 [14] of 1760 nM and a TGI [14] of 3160 nM. The GI50 [15] was 1990 nM, the TGI [15] was 3850 nM and the GI50 [16] was 1750 nM. The TGI [16] was 3140 nM, the GI50 [17] was 1530 nM and the TGI [17] was 2890 nM. It also gave a GI50 [18] of 1760 nM, a TGI [18] of 3370 nM and a GI50 [19] of 1600 nM. The TGI [19] was 3030 nM, the GI50 [20] was 1740 nM and the TGI [20] was 3180 nM. The GI50 [21] was 1390 nM, the TGI [21] was 2710 nM and the GI50 [22] was 1520 nM. The TGI [22] was 4490 nM, the GI50 [23] was 1770 nM and the TGI [23] was 3540 nM. For the same compound, the GI50 [24] was 1610 nM, the TGI [24] was 3600 nM and the GI50 [25] was 1630 nM. For the same compound, the TGI [25] was 3160 nM, the GI50 [26] was 1710 nM and the TGI [26] was 3290 nM. It also gave a GI50 [27] of 1830 nM, a TGI [27] of 3620 nM and a GI50 [28] of 1690 nM. For the same compound, the TGI [28] was 3090 nM, the GI50 [29] was 1250 nM and the TGI [29] was 2520 nM.
